Measurements taken from PMC7139549, “TLD1433 Photosensitizer Inhibits Conjunctival Melanoma Cells in Zebrafish Ectopic and Orthotopic Tumour Models” (Cancers, 2020).
Where two headings read alike, the source gives them in different places.

Key:
Format in all cases: cell-based, Human
[1] = system: MEL270 uveal melanoma cell line; assay: SRB cell viability assay, MEL270
Protocol: TLD1433 is known to generate reactive oxygen species (ROS) with high quantum efficacy in many cancer cell lines. However, there is no report of the in vitro toxicity of this compound in eye melanoma (UM) cell lines. We determined the cell viability of three conjunctival melanoma cell lines (CRMM1, CRMM2 and CM2005.1), and three uveal melanoma cell lines (OMM1, OMM2.5, MEL270) in the presence of TLD1433, both in the dark or under green light irradiation (21 mW/cm^2, 19 J/cm^2, 520 nm, 15 min), and compared this viability to epidermoid carcinoma A431 and cutaneous melanoma A375 cell lines under the same conditions. The protocol used was based on previous work from the Bonnet group, and differed slightly from recommendations from McFarland et al.. […] The effective concentration (EC50) values, i.e., the concentration required to reduce cell viability by 50% compared to untreated wells, were assessed by fitting the dose-response curves with a Hill equation. The phototoxicity index (PI), defined as the ratio of the dark EC50 to the light EC50, was also calculated and represents the amplification of TLD1433 activity with a light trigger. […]
(§1) Figure 2 Cell viability after TLD1433 treatment of eight tumour cell lines (CRMM1, CRMM2, CM2005.1, OMM1, OMM2.5, MEL270, A431, A375). […] The absorbance of Sulforhodamine B in solution was measured at 520 nm. […]
At day 0, cells were detached using 1mL of trypsin, resuspended in 4 mL of media and transferred to a 15 mL corning falcon tube. Cells were counted using trypan blue and BioRad® TC20™ automated cell counter (Figure 11). Dilutions of 6000 (CRMM1), 6000 (CRMM2), 8000 (CM2005.1), 6000 (OMM1), 6000 (OMM2.5), 6000 (MEL270) 8000 (A431), and 4000 (A375) cells/well were calculated from each cell suspension at a final volume of 6 mL using the following formula: Vc=(Vt×10C)/Lc where Vt = total volume of solution, C = number of cells per well/per 100 μL and Lc = live cells count (cells/mL). […] Next day, the dye was dissolved using Tri-base (0.25%) and absorbance of SRB at 510 nm was recorded from each well using a Tecan plate reader. […]

[2] = system: A375 cutaneous melanoma cell line; assay: SRB cell viability assay, A375
Protocol: (§2) TLD1433 is known to generate reactive oxygen species (ROS) with high quantum efficacy in many cancer cell lines. However, there is no report of the in vitro toxicity of this compound in eye melanoma (UM) cell lines. We determined the cell viability of three conjunctival melanoma cell lines (CRMM1, CRMM2 and CM2005.1), and three uveal melanoma cell lines (OMM1, OMM2.5, MEL270) in the presence of TLD1433, both in the dark or under green light irradiation (21 mW/cm^2, 19 J/cm^2, 520 nm, 15 min), and compared this viability to epidermoid carcinoma A431 and cutaneous melanoma A375 cell lines under the same conditions. […] The phototoxicity index (PI), defined as the ratio of the dark EC50 to the light EC50, was also calculated and represents the amplification of TLD1433 activity with a light trigger. […]
as §1
At day 0, cells were detached using 1mL of trypsin, resuspended in 4 mL of media and transferred to a 15 mL corning falcon tube. Cells were counted using trypan blue and BioRad® TC20™ automated cell counter (Figure 11). […] Next day, the dye was dissolved using Tri-base (0.25%) and absorbance of SRB at 510 nm was recorded from each well using a Tecan plate reader. […]

CM cells = assay: SRB cell viability assay, CM cells; settings: dark EC50 to light EC50
Protocol: as §2
At day 0, cells were detached using 1mL of trypsin, resuspended in 4 mL of media and transferred to a 15 mL corning falcon tube. Cells were counted using trypan blue and BioRad® TC20™ automated cell counter (Figure 11). Dilutions of 6000 (CRMM1), 6000 (CRMM2), 8000 (CM2005.1), 6000 (OMM1), 6000 (OMM2.5), 6000 (MEL270) 8000 (A431), and 4000 (A375) cells/well were calculated from each cell suspension at a final volume of 6 mL using the following formula: Vc=(Vt×10C)/Lc where Vt = total volume of solution, C = number of cells per well/per 100 μL and Lc = live cells count (cells/mL). […]

With Cc1ccnc(-c2cc(C)ccn2)c1.Cc1ccnc(-c2cc(C)ccn2)c1.[Cl-].[Cl-].[Ru+2].c1csc(-c2ccc(-c3ccc(-c4nc5c6cccnc6c6ncccc6c5[nH]4)s3)s2)c1 [TLD1433] the EC50 ([1]; MEL270, dark, 24 h treatment, SRB, read-out: EC50, dark) was 1100 nM, the EC50 ([1]; MEL270, green light 520 nm, 15 min, 21 mW/cm^2, 19 J.cm^−2, DLI 24 h, read-out: EC50,light) was 10 nM and the “PI (photo index)” value ([1]; MEL270, ratio of dark and light EC50, 19 J.cm^−2 green light) was 110. The EC50 ([2]; A375, dark, 24 h treatment, SRB, read-out: EC50, dark) was > 5000 nM, the EC50 ([2]; A375, green light 520 nm, 15 min, 21 mW/cm^2, 19 J.cm^−2, DLI 24 h, read-out: EC50,light) was 50 nM and the PI (CM cells) was > 140.
